Tests used:
[1] = target: Serine/threonine-protein kinase PknB (Mycobacterium tuberculosis) (UniProt P9WI81)
[2] = target: Serine/threonine-protein kinase ULK1 (Homo sapiens) (UniProt O75385)
[3] = target: Membrane-associated tyrosine- and threonine-specific cdc2-inhibitory kinase (Homo sapiens) (UniProt Q99640)
[4] = target: Tyrosine-protein kinase Yes (Homo sapiens) (UniProt P07947)
[5] = target: Atypical kinase COQ8A, mitochondrial (Homo sapiens) (UniProt Q8NI60)
[6] = target: Macrophage-stimulating protein receptor (Homo sapiens) (UniProt Q04912)
[7] = target: Ribosomal protein S6 kinase alpha-1 (Homo sapiens) (UniProt Q15418)
[8] = target: T1, Serine/threonine-protein kinase Chk1 (Homo sapiens) (UniProt O14757)
T1 sequence (whole entry): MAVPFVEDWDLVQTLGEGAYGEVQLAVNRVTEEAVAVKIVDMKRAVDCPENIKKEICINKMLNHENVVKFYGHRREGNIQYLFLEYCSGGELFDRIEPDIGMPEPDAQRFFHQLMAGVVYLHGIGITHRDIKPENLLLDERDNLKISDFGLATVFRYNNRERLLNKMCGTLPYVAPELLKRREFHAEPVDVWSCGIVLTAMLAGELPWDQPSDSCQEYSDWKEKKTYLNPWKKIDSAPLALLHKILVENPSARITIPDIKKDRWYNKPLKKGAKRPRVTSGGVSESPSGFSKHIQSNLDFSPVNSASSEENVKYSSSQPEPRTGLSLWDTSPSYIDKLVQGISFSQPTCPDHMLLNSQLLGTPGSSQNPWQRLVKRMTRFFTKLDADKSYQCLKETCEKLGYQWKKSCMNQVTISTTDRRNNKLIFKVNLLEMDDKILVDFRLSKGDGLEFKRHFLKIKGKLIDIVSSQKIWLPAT

[9] = target: Receptor-interacting serine/threonine-protein kinase 4 (Homo sapiens) (UniProt P57078)
[10] = target: T2, Serine/threonine-protein kinase 3 (Homo sapiens) (UniProt Q13188)
T2 sequence (whole entry): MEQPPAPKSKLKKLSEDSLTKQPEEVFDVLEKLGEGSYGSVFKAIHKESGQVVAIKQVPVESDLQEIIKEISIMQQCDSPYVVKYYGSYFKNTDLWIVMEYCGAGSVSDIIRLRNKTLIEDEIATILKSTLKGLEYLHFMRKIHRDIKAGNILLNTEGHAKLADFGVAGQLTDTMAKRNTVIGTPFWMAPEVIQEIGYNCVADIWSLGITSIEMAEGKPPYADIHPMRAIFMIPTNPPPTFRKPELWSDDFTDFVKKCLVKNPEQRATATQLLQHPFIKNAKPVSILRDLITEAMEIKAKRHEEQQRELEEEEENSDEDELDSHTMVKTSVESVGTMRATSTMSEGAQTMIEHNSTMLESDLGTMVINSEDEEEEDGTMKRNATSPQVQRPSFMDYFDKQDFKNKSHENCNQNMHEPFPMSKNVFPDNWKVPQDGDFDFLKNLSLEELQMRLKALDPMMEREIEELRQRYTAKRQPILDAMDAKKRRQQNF

[11] = target: Beta-2 adrenergic receptor (Homo sapiens) (UniProt P07550); conditions: Compound concentration 10.0 uM
[12] = target: Mitogen-activated protein kinase kinase kinase 9 (Homo sapiens) (UniProt P80192)
[13] = target: Cyclin-dependent kinase-like 2 (Homo sapiens) (UniProt Q92772)
[14] = target: Calcium/calmodulin-dependent protein kinase type II subunit gamma (Homo sapiens) (UniProt Q13555)
[15] = target: RAC-alpha serine/threonine-protein kinase (Homo sapiens) (UniProt P31749)
[16] = target: Epithelial discoidin domain-containing receptor 1 (Homo sapiens) (UniProt Q08345)
[17] = target: Receptor-interacting serine/threonine-protein kinase 2 (Homo sapiens) (UniProt O43353)
[18] = target: NT-3 growth factor receptor (Homo sapiens) (UniProt Q16288)
[19] = test system: Epidermal growth factor receptor (Homo sapiens), P00533 [L861Q]
[20] = test system: Tyrosine-protein kinase ABL1 (Homo sapiens), P00519 [H396P]
[21] = target: Serine/threonine-protein kinase 16 (Homo sapiens) (UniProt O75716)
[22] = target: Serine/threonine-protein kinase PLK3 (Homo sapiens) (UniProt Q9H4B4)
[23] = target: T3, Activin receptor type-1B (Homo sapiens) (UniProt P36896)
T3 sequence (whole entry): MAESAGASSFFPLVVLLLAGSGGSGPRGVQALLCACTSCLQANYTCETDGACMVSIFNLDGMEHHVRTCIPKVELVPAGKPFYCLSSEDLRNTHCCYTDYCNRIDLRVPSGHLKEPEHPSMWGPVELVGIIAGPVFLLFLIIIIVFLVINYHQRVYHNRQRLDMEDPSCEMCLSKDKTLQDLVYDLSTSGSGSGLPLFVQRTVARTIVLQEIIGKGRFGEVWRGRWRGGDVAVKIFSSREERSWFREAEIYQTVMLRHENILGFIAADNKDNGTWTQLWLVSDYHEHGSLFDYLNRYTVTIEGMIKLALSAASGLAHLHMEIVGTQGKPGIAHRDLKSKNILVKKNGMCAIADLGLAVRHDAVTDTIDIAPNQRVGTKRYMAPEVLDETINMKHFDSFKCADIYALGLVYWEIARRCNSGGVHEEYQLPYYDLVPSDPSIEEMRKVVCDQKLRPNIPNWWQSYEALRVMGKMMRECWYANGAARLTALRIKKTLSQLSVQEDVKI

[24] = target: Eukaryotic translation initiation factor 2-alpha kinase 1 (Homo sapiens) (UniProt Q9BQI3)
[25] = target: Serine/threonine-protein kinase SIK3 (Homo sapiens) (UniProt Q9Y2K2)
[26] = Compound concentration 1000.0 nM
[27] = Compound concentration 100.0 nM

Chain of Ribosomal protein S6 kinase alpha-1 (Homo sapiens) (Q15418 whole entry): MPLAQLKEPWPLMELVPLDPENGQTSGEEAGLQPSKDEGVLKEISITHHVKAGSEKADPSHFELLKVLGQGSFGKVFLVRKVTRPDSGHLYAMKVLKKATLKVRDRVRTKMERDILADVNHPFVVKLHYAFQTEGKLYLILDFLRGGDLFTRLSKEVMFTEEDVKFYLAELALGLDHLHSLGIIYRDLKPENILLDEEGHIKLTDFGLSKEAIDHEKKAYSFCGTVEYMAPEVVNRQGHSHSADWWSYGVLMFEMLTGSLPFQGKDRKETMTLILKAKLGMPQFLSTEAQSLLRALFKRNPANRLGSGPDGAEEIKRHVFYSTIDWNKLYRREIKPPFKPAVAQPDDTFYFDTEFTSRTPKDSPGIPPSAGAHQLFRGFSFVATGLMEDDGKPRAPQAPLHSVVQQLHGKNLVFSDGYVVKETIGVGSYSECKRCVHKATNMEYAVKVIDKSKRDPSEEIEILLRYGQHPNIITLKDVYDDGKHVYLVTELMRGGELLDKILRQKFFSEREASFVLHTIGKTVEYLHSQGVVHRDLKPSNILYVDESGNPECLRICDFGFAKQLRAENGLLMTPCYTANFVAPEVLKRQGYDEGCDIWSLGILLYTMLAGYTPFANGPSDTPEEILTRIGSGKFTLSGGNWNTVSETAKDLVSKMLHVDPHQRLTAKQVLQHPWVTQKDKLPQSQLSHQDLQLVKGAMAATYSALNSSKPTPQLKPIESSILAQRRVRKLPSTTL
Chain of Receptor-interacting serine/threonine-protein kinase 4 (Homo sapiens) (P57078 whole entry): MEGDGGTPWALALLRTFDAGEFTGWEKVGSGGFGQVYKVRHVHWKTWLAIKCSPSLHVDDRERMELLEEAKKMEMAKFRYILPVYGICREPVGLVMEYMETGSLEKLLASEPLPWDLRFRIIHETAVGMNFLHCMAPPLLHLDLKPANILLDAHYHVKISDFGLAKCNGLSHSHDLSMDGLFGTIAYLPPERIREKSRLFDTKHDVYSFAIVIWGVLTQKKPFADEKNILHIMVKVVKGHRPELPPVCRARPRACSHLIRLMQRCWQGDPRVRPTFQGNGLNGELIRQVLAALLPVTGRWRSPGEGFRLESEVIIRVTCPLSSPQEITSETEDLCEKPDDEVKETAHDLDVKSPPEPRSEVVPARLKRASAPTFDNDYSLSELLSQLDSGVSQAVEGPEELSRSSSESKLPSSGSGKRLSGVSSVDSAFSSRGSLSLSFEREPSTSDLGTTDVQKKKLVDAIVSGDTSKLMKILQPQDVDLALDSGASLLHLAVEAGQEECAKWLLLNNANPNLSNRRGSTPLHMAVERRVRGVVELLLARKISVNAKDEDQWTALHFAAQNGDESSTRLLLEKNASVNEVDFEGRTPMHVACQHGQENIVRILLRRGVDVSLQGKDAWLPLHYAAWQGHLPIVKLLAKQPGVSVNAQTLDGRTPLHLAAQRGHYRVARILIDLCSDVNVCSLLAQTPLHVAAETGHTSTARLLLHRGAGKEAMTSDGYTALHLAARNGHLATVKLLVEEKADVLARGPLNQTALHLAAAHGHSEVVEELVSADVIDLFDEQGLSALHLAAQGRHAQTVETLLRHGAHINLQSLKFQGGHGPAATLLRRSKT
Chain of Cyclin-dependent kinase-like 2 (Homo sapiens) (Q92772 whole entry): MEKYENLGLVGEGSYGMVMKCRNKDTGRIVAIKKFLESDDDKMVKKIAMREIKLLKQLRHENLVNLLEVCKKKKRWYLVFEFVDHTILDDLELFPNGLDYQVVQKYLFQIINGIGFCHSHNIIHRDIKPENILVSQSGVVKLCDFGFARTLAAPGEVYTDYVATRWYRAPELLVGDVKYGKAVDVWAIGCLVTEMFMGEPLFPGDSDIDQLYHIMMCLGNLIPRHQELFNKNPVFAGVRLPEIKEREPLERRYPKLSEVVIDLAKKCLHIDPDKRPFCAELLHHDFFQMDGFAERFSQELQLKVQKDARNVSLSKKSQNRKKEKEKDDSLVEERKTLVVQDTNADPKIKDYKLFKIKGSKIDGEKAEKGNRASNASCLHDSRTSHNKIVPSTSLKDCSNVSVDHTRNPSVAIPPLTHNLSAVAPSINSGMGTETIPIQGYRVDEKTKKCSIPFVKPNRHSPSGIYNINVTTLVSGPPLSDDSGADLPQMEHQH
Chain of Eukaryotic translation initiation factor 2-alpha kinase 1 (Homo sapiens) (Q9BQI3 whole entry): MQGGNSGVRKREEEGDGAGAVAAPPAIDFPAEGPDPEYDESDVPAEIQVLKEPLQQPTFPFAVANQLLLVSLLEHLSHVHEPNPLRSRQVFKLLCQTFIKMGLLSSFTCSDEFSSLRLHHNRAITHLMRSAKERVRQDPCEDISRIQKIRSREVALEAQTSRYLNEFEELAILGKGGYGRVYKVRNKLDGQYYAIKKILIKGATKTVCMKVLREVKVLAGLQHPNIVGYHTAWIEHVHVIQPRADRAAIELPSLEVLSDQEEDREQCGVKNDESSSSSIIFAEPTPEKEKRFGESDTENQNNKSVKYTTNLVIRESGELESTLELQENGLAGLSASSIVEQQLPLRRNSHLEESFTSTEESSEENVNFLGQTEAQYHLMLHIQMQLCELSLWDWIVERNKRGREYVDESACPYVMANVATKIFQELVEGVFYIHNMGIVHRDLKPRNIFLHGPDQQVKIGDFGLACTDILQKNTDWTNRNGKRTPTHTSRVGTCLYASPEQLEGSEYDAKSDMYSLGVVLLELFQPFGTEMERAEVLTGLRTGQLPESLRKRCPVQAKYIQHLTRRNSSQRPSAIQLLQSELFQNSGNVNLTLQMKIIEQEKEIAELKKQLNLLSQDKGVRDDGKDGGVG
Chain of Mitogen-activated protein kinase kinase kinase 9 (Homo sapiens) (P80192 whole entry, looked up): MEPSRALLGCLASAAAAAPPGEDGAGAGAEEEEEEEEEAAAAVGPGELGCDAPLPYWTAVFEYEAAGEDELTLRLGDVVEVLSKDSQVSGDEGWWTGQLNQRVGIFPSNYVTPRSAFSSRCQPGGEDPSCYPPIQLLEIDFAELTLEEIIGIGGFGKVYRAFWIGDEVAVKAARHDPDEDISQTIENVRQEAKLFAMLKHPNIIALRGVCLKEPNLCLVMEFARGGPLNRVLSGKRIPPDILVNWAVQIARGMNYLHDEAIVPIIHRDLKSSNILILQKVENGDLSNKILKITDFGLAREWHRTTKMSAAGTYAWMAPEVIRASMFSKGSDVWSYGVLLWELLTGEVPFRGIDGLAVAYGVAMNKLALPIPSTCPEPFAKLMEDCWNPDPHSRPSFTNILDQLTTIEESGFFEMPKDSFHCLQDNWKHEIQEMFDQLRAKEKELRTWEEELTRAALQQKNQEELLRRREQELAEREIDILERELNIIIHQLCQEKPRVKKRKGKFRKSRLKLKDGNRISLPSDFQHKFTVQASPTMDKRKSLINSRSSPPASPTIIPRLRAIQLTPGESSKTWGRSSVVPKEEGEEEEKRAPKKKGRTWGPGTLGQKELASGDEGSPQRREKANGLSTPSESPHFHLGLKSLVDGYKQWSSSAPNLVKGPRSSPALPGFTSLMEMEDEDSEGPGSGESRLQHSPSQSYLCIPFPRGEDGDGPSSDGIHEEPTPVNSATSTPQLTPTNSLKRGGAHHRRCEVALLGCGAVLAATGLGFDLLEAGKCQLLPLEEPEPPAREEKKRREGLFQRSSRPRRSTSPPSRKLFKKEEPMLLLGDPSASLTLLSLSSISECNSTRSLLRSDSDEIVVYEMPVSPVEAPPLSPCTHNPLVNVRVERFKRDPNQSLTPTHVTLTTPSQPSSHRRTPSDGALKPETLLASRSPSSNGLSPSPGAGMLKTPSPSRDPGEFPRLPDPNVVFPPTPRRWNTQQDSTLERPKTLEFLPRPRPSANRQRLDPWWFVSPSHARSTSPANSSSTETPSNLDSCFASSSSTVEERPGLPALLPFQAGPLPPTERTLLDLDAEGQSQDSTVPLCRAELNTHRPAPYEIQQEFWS
Chain of NT-3 growth factor receptor (Homo sapiens) (Q16288 32-839 limits assumed): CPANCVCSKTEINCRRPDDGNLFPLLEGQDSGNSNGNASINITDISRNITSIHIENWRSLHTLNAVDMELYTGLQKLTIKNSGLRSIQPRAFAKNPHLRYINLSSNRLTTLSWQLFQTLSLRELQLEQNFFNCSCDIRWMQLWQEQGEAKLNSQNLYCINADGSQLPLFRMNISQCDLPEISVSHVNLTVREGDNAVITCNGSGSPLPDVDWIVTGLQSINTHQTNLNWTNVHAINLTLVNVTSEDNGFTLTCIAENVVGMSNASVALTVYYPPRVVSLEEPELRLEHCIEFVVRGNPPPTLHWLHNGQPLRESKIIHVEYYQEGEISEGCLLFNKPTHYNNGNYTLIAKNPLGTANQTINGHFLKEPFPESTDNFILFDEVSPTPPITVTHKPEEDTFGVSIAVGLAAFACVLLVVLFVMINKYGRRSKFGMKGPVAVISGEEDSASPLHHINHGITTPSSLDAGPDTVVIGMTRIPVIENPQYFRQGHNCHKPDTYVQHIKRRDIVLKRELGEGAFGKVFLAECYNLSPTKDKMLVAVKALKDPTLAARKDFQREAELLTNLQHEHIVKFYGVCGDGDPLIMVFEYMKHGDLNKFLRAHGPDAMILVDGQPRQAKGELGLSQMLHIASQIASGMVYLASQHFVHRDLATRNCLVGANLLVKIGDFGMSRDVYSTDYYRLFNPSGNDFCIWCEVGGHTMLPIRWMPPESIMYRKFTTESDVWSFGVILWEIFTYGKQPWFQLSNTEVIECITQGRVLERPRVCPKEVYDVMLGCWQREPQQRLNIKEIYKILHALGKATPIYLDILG
Chain of Serine/threonine-protein kinase 16 (Homo sapiens) (O75716 whole entry): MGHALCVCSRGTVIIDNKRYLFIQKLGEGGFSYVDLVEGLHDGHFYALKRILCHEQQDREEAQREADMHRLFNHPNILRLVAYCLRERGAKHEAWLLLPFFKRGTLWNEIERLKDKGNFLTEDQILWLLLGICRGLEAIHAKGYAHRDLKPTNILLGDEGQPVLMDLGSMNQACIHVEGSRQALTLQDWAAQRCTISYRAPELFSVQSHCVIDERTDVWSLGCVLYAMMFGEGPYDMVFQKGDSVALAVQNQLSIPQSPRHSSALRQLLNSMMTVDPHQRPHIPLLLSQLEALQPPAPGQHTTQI

`C[C@@H]1CN(c2cc(-c3nn(C)c4ccc(OC5(C)CC5)cc34)ncn2)C[C@H](C)O1` [MLi-2-NC] gave a residual activity [1, 26] of 100%, a residual activity [2, 26] of 76% and a residual activity [3, 26] of 100%. The residual activity [4, 26] was 98%, the residual activity [5, 26] was 100% and the residual activity [6, 26] was 100%. It also gave a residual activity [7, 26] of 100%, a residual activity [8, 26] of 57% and a residual activity [9, 26] of 85%. The residual activity [10, 26] was 100%, the inhibition [11] was 13.8% and the residual activity [12, 26] was 100%. It also gave a residual activity [13, 26] of 100%, a residual activity [14, 26] of 90% and a residual activity [15, 26] of 100%. The residual activity [16, 26] was 68%, the residual activity [17, 26] was 100% and the residual activity [18, 26] was 65%. For the same compound, the residual activity [19, 26] was 83%, the residual activity [20, 26] was 75% and the residual activity [21, 26] was 100%. For the same compound, the residual activity [22, 26] was 84%, the residual activity [23, 26] was 78% and the residual activity [24, 26] was 60%. It also gave a residual activity [25, 26] of 63%.
In the case of `C[C@@H]1CN(c2cc(-c3n[nH]c4ccc(OC5(C)CC5)cc34)ncn2)C[C@H](C)O1` [MLi-2], the residual activity [1, 27] is reported as 95%, the residual activity [2, 27] is reported as 80% and the residual activity [3, 27] is reported as 96%. It also gave a residual activity [4, 27] of 80%, a residual activity [5, 27] of 85% and a residual activity [6, 27] of 100%. It also gave a residual activity [7, 27] of 97%, a residual activity [8, 27] of 90% and a residual activity [9, 27] of 48%. The residual activity [10, 27] was 78%, the inhibition [11] was 26.4% and the residual activity [12, 27] was 100%. It also gave a residual activity [13, 27] of 100%, a residual activity [14, 27] of 100% and a residual activity [15, 27] of 87%. For the same compound, the residual activity [16, 27] was 91%, the residual activity [17, 27] was 100% and the residual activity [18, 27] was 86%. The residual activity [19, 27] was 50%, the residual activity [20, 27] was 96% and the residual activity [21, 27] was 100%. It also gave a residual activity [22, 27] of 84%, a residual activity [23, 27] of 90% and a residual activity [24, 27] of 100%. The residual activity [25, 27] was 74%.
